This note sets out measurements from US20230357363A1, “PROTEIN DOUBLE-SHELL NANOSTRUCTURES AND THEIR USE” (The Board of Trustees of the Leland Stanford Junior …, priority 2020, published 2023).

The subject of the test is BODIPY-conjugated pKID domain of CREB protein. Description: Fluorescence polarization assay of MBP-KIX-apoferritin with BODIPY-conjugated pKID. The conditions noted are these: FP assay, protein titrated against BODIPY-pKID, read 30 minutes after mixing. It counts as binding. From the text:
FIGS. 1A-1D. The design of double-shell system. FIG. 1A. The double shell system is shown by cartoon with apoferritin as inner cage, MBP as outer cage, and small cargo proteins in the middle portion. FIG. 1B. Strategy of plasmid construction. The cargo protein KIX C-terminus is fused to the apoferritin N-terminus with the C-terminal 668-672 residues of KIX and N-terminal 1-5 residues of apoferritin truncated for stability. Several mutations (shown as lightning) were also incorporated on the interface between KIX and apoferritin to enhance stability. The MBP tag is fused to the KIX N-terminus. FIG. 1C. Design of mutations that stabilize the KIX domain of CBP on the apoferritin complex. […] Fluorescence polarization assay using the BODIPY-conjugated phosphorylated KID domain of CREB and KIX, MBP-KIX-apoferritin construct 3, or MBP-apoferritin. […]
Fluorescence polarization (FP) using the MBP-KIX-apoferritin and the BODIPY-conjugated phosphorylated pKID domain of CREB was performed as described previously^16. […] Phosphorylation efficiency of pKID, which was assessed using a SDS-gel containing Phos-tag™ Acrylamide (FUJIFILM), was almost 100%. pKID was purified using the phosphoprotein enrichment kit (Takara). […] Molar concentration of KIX, MBP-KIX-apoferritin construct 3, and MBP-apoferritin was calculated as a monomer. FP was measured 30 minutes after mixing using INFINITE M1000 PRO (TECAN). […]
For orientation: In fluorescence polarisation assays a small probe gives low polarisation when free and higher when bound to something large.

Turning to “MKF: 24-mer MBP-KIX-apoferritin fusion protein double-shell nanostructure from construct 3 (T27C, A31C, E169C, C177S, E237C)”, the “binding affinity of KIX for the BODIPY-conjugated pKID domain of CREB (function of KIX in the 24-mer complex)” value is on record as “still maintained its function”.
